BindingDB's records for doi:10.1021/jm950876u (Universit&#224, 1996)

Target: Xanthine dehydrogenase/oxidase (Homo sapiens, UniProt P47989)
Test: Inhibitory activity against Xanthine Oxidase

Sequence of Xanthine dehydrogenase/oxidase (P47989 whole entry): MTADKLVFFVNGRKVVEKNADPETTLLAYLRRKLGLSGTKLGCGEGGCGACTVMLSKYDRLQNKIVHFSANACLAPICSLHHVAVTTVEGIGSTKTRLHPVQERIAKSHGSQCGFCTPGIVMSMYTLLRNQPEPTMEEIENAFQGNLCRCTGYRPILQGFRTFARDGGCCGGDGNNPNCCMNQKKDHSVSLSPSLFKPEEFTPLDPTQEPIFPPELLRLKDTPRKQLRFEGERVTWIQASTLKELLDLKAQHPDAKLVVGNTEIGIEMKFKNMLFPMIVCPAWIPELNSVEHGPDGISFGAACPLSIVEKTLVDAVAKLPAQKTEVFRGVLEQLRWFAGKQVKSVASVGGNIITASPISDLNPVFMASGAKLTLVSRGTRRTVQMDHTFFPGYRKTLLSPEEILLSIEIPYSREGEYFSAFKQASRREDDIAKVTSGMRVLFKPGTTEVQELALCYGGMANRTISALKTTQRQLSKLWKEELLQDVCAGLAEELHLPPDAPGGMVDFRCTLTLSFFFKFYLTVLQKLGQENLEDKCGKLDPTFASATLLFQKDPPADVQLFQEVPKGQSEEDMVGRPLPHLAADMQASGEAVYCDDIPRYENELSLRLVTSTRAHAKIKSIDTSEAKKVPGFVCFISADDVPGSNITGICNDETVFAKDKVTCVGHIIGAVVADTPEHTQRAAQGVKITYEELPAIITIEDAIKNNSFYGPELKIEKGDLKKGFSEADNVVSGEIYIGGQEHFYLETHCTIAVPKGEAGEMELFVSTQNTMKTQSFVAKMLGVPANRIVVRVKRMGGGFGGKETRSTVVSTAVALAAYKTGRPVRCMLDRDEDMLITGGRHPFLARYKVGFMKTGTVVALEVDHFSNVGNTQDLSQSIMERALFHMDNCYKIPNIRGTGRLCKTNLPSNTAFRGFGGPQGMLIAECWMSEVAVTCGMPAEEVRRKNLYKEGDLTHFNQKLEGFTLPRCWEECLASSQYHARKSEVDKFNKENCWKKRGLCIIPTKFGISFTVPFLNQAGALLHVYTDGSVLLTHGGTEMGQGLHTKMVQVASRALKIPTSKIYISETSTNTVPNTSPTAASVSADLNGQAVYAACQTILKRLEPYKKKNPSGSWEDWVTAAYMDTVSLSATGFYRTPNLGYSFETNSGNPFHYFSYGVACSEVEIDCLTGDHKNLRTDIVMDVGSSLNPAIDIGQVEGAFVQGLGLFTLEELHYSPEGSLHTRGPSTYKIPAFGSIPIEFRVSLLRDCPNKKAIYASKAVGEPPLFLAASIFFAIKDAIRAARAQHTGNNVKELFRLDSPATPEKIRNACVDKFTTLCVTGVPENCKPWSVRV

CC1CSc2nc3[nH]c(=S)[nH]c3c(=O)n2C1 (configuration not stated) [2-Mercapto-7-methyl-7,8-dihydro-3H,6H-5-thia-1,3,4,8a-tetraaza-cyclopenta[b]naphthalen-9-one] was tested, and the Ki was > 100 µM.
With CC1CSc2nc3[nH]c(=O)[nH]c3c(=O)n2C1 (configuration not stated) [2-Hydroxy-7-methyl-7,8-dihydro-3H,6H-5-thia-1,3,4,8a-tetraaza-cyclopenta[b]naphthalen-9-one] the Ki was > 100 µM.
